In patent US4157439A, “Novel nitrosourea derivatives” (priority 1976, dated 1979):
Where two headings read alike, the source gives them in different places.

Columns and labels:
leukemia and tumors = details: background statement on earlier compounds; cited from earlier work
[1] = background statement on earlier compounds; cited from earlier work
[2] = cited from earlier work
Leukemia L 1210 = experiment: Anti-leukemic activity on Leukemia L 1210 in mice (survival, percentage increase in life-span); format: in vivo, male BDF1 mice; details: for Survival days (mean): untreated control 8.0 days; for Number of survivors (after 60 days): survivors/animals after 60 days
Method: The anti-leukemic activity of some typical nitrosourea derivatives of the formula (I) according to this invention was tested on Leukemia L 1210 in mice, details of which are given below. By way of comparison, Streptozotocin was tested in the same way.
Male BDF1 mice, aging about 6-weeks old and weighing 22±1 g were used in groups of 5 animals each for the tests.
Each animal was inoculated with 10^6 cells of L 1210 intraperitoneally,and the test compound in the form as shown below was administered intraperitoneally from the 24th hour after inoculation once a day for 3 consecutive days. The anti-leukemic activity was assessed by comparing the mean survival days of the treated mice to that of the untreated control, i.e. percentage increase in life-span (ILS) which was calculated as follows:
Percentage increase in life-span (ILS)=(T-C/C)×100
T: The mean survival days of the treated animals
C: The mean survival days of the untreated animals
The compounds No. 1 and No. 3 were used in the form of an aqueous solution in distilled water and the compound No. 2 in the form of an aqueous suspension containing 1% CMC.

[3] = Acute toxicity in the intraperitoneal administration to BDF1 mice; details: mouse, in vivo, ip
From the text: It will be appreciated clearly from the tests results of Table 1 that the novel nitrosourea derivatives according to this invention gave a significant increase in life-span in therapeutic treatment of the leukemia in comparison with streptozotocin as a known anti-leukemic nitrosourea. The novel nitrosourea derivatives according to this invention are further characterized by their low toxicity, thus satisfying their practical application for treating leukemia and tumor diseases. For example, acute toxicity in the intraperitoneal administration to BDF1 mice of typical nitrosourea derivatives according to this invention is shown below: […]

[4] = background statement on earlier compounds
[5] = dose 4 mg/kg i.p. once a day for 3 days, 60 days observation
[6] = dose 4 mg/kg i.p. once a day for 3 days
[7] = dose 8 mg/kg i.p. once a day for 3 days, 60 days observation
[8] = dose 8 mg/kg i.p. once a day for 3 days
[9] = dose 1 mg/kg i.p. once a day for 3 days, 60 days observation
[10] = dose 2 mg/kg i.p. once a day for 3 days, 60 days observation

O=NN(CCCl)C(=O)N[C@@H]1O[C@H](CO)[C@@H](O)[C@H](O)[C@H]1O [1-(2-chloroethyl)-3-(β-D-glucopyranosyl)-1-nitrosourea]
activity against the leukemia and tumors (leukemia and tumors): remarkably high inhibitory activity against a variety of leukemia and tumors | hygroscopicity [1]: somewhat hygroscopic | side effect [2, 4]: low side effect | toxicity [2, 4]: low toxicity

CC(=O)N[C@@H]1[C@@H](OC(C)=O)[C@H](OC(C)=O)[C@@H](COC(C)=O)O[C@H]1NC(=O)N(CCCl)N=O [compound 1, 1-(2-Chloroethyl)-3-(2-acetamido-3,4,6-tri-O-acetyl-2-deoxy-β-D-glucopyranosyl)-1-nitrosourea]
ILS (percentage increase in life-span) (Leukemia L 1210; [5]): 78.8% | Survival days (mean) (Leukemia L 1210; [5]): 14.3 days | Number of survivors (after 60 days) (Leukemia L 1210; [6]): 0/5 | ILS (percentage increase in life-span) (Leukemia L 1210; [7]): 105.0% | Survival days (mean) (Leukemia L 1210; [7]): 16.4 days | Number of survivors (after 60 days) (Leukemia L 1210; [8]): 0/5 | LD50 [3]: 25 mg/kg

CC(=O)N[C@@H]1[C@@H](O)[C@H](O)[C@@H](CO)O[C@H]1NC(=O)N(CCCl)N=O [compound 2, 1-(2-Chloroethyl)-3-(2-acetamido-2-deoxy-β-D-glucopyranosyl)-1-nitrosourea]
ILS (percentage increase in life-span) (Leukemia L 1210; [9]): 41.3% | Survival days (mean) (Leukemia L 1210; [9]): 11.3 days | Number of survivors (after 60 days) (Leukemia L 1210; dose 1 mg/kg i.p. once a day for 3 days): 0/5 | ILS (percentage increase in life-span) (Leukemia L 1210; [10]): 55.0% | Survival days (mean) (Leukemia L 1210; [10]): 12.4 days | Number of survivors (after 60 days) (Leukemia L 1210; dose 2 mg/kg i.p. once a day for 3 days): 0/5 | ILS (percentage increase in life-span) (Leukemia L 1210; [5]): 95.0% | Survival days (mean) (Leukemia L 1210; [5]): 15.6 days | Number of survivors (after 60 days) (Leukemia L 1210; [6]): 0/5 | ILS (percentage increase in life-span) (Leukemia L 1210; [7]): < 495.0% | Survival days (mean) (Leukemia L 1210; [7]): < 47.6 days | Number of survivors (after 60 days) (Leukemia L 1210; [8]): 3/5 | LD50 [3]: 20 mg/kg

CN(N=O)C(=O)N[C@H]1C(O)O[C@H](CO)[C@@H](O)[C@@H]1O (stereo partly drawn) [compound 3, N-(N'-methyl-N'-nitroso-carbamoyl)-D-glucosamine, reference compound]
Survival days (mean) (Leukemia L 1210; dose 50 mg/kg i.p. once a day for 3 days, 60 days observation): 12.1 days | Number of survivors (after 60 days) (Leukemia L 1210; dose 50 mg/kg i.p. once a day for 3 days): 0/5 | Survival days (mean) (Leukemia L 1210; dose 100 mg/kg i.p. once a day for 3 days, 60 days observation): 10.6 days | Number of survivors (after 60 days) (Leukemia L 1210; dose 100 mg/kg i.p. once a day for 3 days): 0/5 | ILS (percentage increase in life-span) (Leukemia L 1210; ip, 50 mg/kg): 51.3% | ILS (percentage increase in life-span) (Leukemia L 1210; ip, 100 mg/kg): 32.5% | activity against the leukemia and tumors (leukemia and tumors): insufficient activity against the leukemia and tumors | side effect ([2]; in vivo): undesirable side effect
